Measured values: US20120264804A1, “T TYPE CALCIUM CHANNEL BLOCKERS AND THE TREATMENT OF DISEASES” (University of Virginia Patent Foundation, priority 2004, published 2012)
Read-outs that look alike come from different tables or passages of the source.

Assays:
[1] = system: PC3 human prostate cancer cells; assay: Proliferation of PC3 prostate cancer cells (CellTiter 96); type: cell-based; details: read-out: IC50 for inhibiting proliferation of PC3 prostate cancer cells
Description: FIG. 5, TH-1177 and TH-1211 are stereoisomers about one of two chiral centers and have different potencies at inhibiting the proliferation of PC3 prostate cancer cells. Panel A: The structures of TH-1177 and TH-1211 were determined as described in Materials and Methods. The diastereomers are racemic at the benzhydrol center (solid arrows) and enantiomeric at the proline center (open arrows) with TH-1177 having the S configuration and TH-1211 having the R. Panel B: The proliferation of PC3 human prostate cancer cells was determined as described in Materials and Methods.
(§1) LNCaP cells at 2.5×10^4 cells/well or PC-3 cells at 5×10^4 cells/well, both in a final volume of 100 IJI, were plated in triplicate in standard flat-bottomed 96-well tissue culture plates in the presence of drug or vehicle (DMSO). Unless otherwise indicated, cells were grown for 48 h at 37° C. in a CO2 incubator. Relative cell growth was determined with the CellTiter 96 aqueous cell proliferation assay (Promega, Madison, Wis.) as described by the manufacturer using an automated plate reader. Results were calculated in a blinded fashion and are the means of triplicate determinations.

[2] = system: Jurkat cells; assay: Proliferation of Jurkat cells with or without ionomycin; type: cell-based, human; details: for IC50: Homo sapiens, Jurkat cells, 48 hrs
Description: FIG. 2. The Ca2+ ionophore ionomycin overcomes the inhibition of Ca2+ entry into and proliferation of Jurkat cells produced by TH-1177. Panel A. Ca2+ entry into Jurkat cells was determined as described in Materials and Methods. Ionomycin at the indicated concentrations was added at 30 s and the mitogenic monoclonal antibody (OKT3 was added at a concentration of 1 ug/ml at 60 s. Either EGTA at 2.5 mM or TH-1177 at the indicated concentrations was added at 150 s. The percentage inhibition was determined as described in Material and Methods. Panel B. Jurkat cells were grown for 48 hrs in the presence (open symbols) or absence (closed symbols) of 30 nM ionomycin and the indicated concentrations of TH-1177. Percent control growth was determined as described in Materials and Methods.
as §1

[3] = system: xenografted human PC3 prostate cancer cells; details: treatment with TH-1177; Haverstick et al. 2000; cited from earlier work

Row | IC50 [1] | IC50 ([2]; in the presence of 30 uM ionomycin, read-out: IC50 of TH-1177 for inhibition of proliferation, in the presence of ionomycin) | IC50 ([2]; ionomycin absent, read-out: IC50 of TH-1177 for inhibition of proliferation, in the absence of ionomycin) | SMILES | lifespan of mice bearing xenografted PC3 cells [3] | effect on proliferation of ionomycin alone ([2]; 30 nM ionomycin alone)
1 | 14 µM | 4.6 µM | 17.8 µM | COc1ccc(CCN2CCCC2COC(c2ccccc2)c2ccc(Cl)cc2)cc1 (stereo not drawn) [TH-1177] | significantly extended the lifespan | –
2 | 42 µM | – | – | COc1ccc(CCN2CCCC2COC(c2ccccc2)c2ccc(Cl)cc2)cc1 (stereo not drawn) [TH-1211] | – | –
3 | – | – | – | C[C@H](CCC(=O)O)C[C@H](C)C[C@H](C)C(=O)/C=C(\O)[C@H](C)C[C@H](C)C/C=C/[C@@H](C)[C@@H](O)[C@@H](C)[C@@H](O)C[C@@H]1CC[C@@](C)([C@H]2CC[C@@](C)([C@@H](C)O)O2)O1 [ionomycin, reference compound] | – | no effect
